Data from patent publication US7012083B2, “Compounds useful in therapy” (Pfizer Inc., priority 1999, dated 2006).

Test system: hind leg scratching behaviour induced by 5-methoxytryptamine hydrochloride
Experiment: Inhibition of hind leg scratching behaviour induced in rats by a pruritogenic agent
Assay type: in vivo, Male Wistar rats
Settings: rat, pruritogen 5-methoxytryptamine hydrochloride 4 mg/3 mL/kg s.c.; test compound s.c. in aqueous micelle formulation; scratching score over 25 minutes
Procedure: The compounds of the invention are evaluated for their activity as antipruritic agents by measuring their ability to inhibit the hind leg scratching behaviour induced in rats by the administration of a known pruritogenic agent. These studies are based on the procedure described by Berendsen and Broekkamp in the European Journal of Pharmacology, 1991, 194, 201. The test is performed as follows: • Male Wistar rats (approximately 150 g body weight) are challenged with a pruritogen by subcutaneous injection of 5-methoxytryptamine hydrochloride (4 mg/3 mL/kg) dissolved in physiological saline into the scruff of the neck. At this dose a constant and quantifiable hindleg scratching response lasting up to 90 minutes is obtained. • The test compound is administered to the test animals by subcutaneous injection in an aqueous micelle formulation. The test compound is prepared in the following manner. […] The compounds can be administered pre- or post-challenge or may be administered at the same time as the pruritogenic challenge. • After the pruritogen challenge has been administered, hindleg scratching is scored for each animal by recording the presence or absence of scratching during each 30 second interval as 1 or 0 scored respectively. […]

CCCCCCN1CC[C@@](C)(c2cccc(OC(=O)NC)c2)[C@H](C)C1 (racemic) [Example 2, (±)-3-(1-Hexyl-trans-3,4-dimethyl-4-piperidinyl)phenyl methylcarbamate]
anti-pruritic activity: found to display anti-pruritic activity
